Earlier results on 1 molecule are cited in patent US20190125725A1, “PHARMACEUTICAL COMPOSITIONS COMPRISING BRIVARACETAM” (Jubilant Generics Limited, priority 2016, published 2019).

For this data set the following is noted: High solubility and permeability.

On to `CCC[C@@H]1CC(=O)N([C@@H](CC)C(N)=O)C1` [Brivaracetam, (2S)-2-[(4R)-2-oxo-4-propyltetrahydro-1H-pyrrol-1-yl] butanamide], for which the “Biopharmaceutics Classification System class” value is recorded as “class I”.
